# According to ChEMBL document CHEMBL3792365, “Dioxol and dihydrodioxin analogs of 2- and 3-phenylacetonitriles as potent anti-cancer agents with nanomolar activity against a variety of human cancer cells” (2016):
# Legend:
# Format in all cases: functional
# [1] = Growth inhibition of human SNB75 cells at 10 uM after 48 hrs by sulforhodamine B assay; settings: SNB-75, 48 h, values are per cent of control
# U-251 = assay: Growth inhibition of human U251 cells at 10 uM after 48 hrs by sulforhodamine B assay; settings: U-251, 48 h, values are per cent of control
# [2] = Growth inhibition of human LOXIMVI cells at 10 uM after 48 hrs by sulforhodamine B assay; settings: LOX IMVI, values are per cent of control
# M14 = assay: Growth inhibition of human M14 cells at 10 uM after 48 hrs by sulforhodamine B assay; settings: M14, 48 h, values are per cent of control
# MDA-MB-435 = assay: Growth inhibition of human MDA-MB-435 cells at 10 uM after 48 hrs by sulforhodamine B assay; settings: MDA-MB-435, 48 h, values are per cent of control
# SK-MEL-2 = assay: Growth inhibition of human SK-MEL-2 cells at 10 uM after 48 hrs by sulforhodamine B assay; settings: SK-MEL-2, 48 h, values are per cent of control
# SK-MEL-28 = assay: Growth inhibition of human SK-MEL-28 cells at 10 uM after 48 hrs by sulforhodamine B assay; settings: SK-MEL-28, 48 h, values are per cent of control
# SK-MEL-5 = assay: Growth inhibition of human SK-MEL-5 cells at 10 uM after 48 hrs by sulforhodamine B assay; settings: SK-MEL-5, 48 h, values are per cent of control
# [3] = Growth inhibition of human OVCAR4 cells at 10 uM after 48 hrs by sulforhodamine B assay; settings: OVCAR-4, 48 h, values are per cent of control
# [4] = Growth inhibition of human OVCAR5 cells at 10 uM after 48 hrs by sulforhodamine B assay; settings: OVCAR-5, 48 h, values are per cent of control
# [5] = Growth inhibition of human OVCAR8 cells at 10 uM after 48 hrs by sulforhodamine B assay; settings: OVCAR-8, 48 h, values are per cent of control
# [6] = Growth inhibition of human NCI-ADR-RES cells at 10 uM after 48 hrs by sulforhodamine B assay; settings: values are per cent of control
# [7] = Growth inhibition of human SKOV3 cells at 10 uM after 48 hrs by sulforhodamine B assay; settings: SK-OV-3, 48 h, values are per cent of control
# 786-0 = assay: Growth inhibition of human 786-0 cells at 10 uM after 48 hrs by sulforhodamine B assay; settings: 786-0, 48 h, values are per cent of control
# A498 = assay: Growth inhibition of human A498 cells at 10 uM after 48 hrs by sulforhodamine B assay; settings: A498, 48 h, values are per cent of control
# ACHN = assay: Growth inhibition of human ACHN cells at 10 uM after 48 hrs by sulforhodamine B assay; settings: values are per cent of control
# [8] = Growth inhibition of human Caki1 cells at 10 uM after 48 hrs by sulforhodamine B assay; settings: CAKI-1, 48 h, values are per cent of control
# [9] = Growth inhibition of human RXF393 cells at 10 uM after 48 hrs by sulforhodamine B assay; settings: RXF 393, 48 h, values are per cent of control
# SN12C = assay: Growth inhibition of human SN12C cells at 10 uM after 48 hrs by sulforhodamine B assay; settings: values are per cent of control
# [10] = Growth inhibition of human TK10 cells at 10 uM after 48 hrs by sulforhodamine B assay; settings: TK-10, 48 h, values are per cent of control
# [11] = Growth inhibition of human UO31 cells at 10 uM after 48 hrs by sulforhodamine B assay; settings: UO-31, 48 h, values are per cent of control
# [12] = Growth inhibition of human DU145 cells at 10 uM after 48 hrs by sulforhodamine B assay; settings: DU-145, 48 h, values are per cent of control
# MDA-MB-231 = assay: Growth inhibition of human MDA-MB-231 cells at 10 uM after 48 hrs by sulforhodamine B assay; settings: MDA-MB-231, 48 h, values are per cent of control
# [13] = Growth inhibition of human BT549 cells at 10 uM after 48 hrs by sulforhodamine B assay; settings: BT-549, 48 h, values are per cent of control
# MDA-MB-468 = assay: Growth inhibition of human MDA-MB-468 cells at 10 uM after 48 hrs by sulforhodamine B assay; settings: MDA-MB-468, 48 h, values are per cent of control
# K562 = assay: Growth inhibition of human K562 cells at 10 uM after 48 hrs by sulforhodamine B assay; settings: K562, 48 h, values are per cent of control
# A549 = assay: Growth inhibition of human A549/ATCC cells at 10 uM after 48 hrs by sulforhodamine B assay; settings: A549, 48 h, values are per cent of control
# [14] = Growth inhibition of human HOP62 cells at 10 uM after 48 hrs by sulforhodamine B assay; settings: HOP-62, 48 h, values are per cent of control
# NCI-H226 = assay: Growth inhibition of human NCI-H226 cells at 10 uM after 48 hrs by sulforhodamine B assay; settings: NCI-H226, 48 h, values are per cent of control
# NCI-H322M = assay: Growth inhibition of human NCI-H322M cells at 10 uM after 48 hrs by sulforhodamine B assay; settings: values are per cent of control
# NCI-H460 = assay: Growth inhibition of human NCI-H460 cells at 10 uM after 48 hrs by sulforhodamine B assay; settings: NCI-H460, 48 h, values are per cent of control
# [15] = Growth inhibition of human COLO205 cells at 10 uM after 48 hrs by sulforhodamine B assay; settings: COLO 205, 48 h, values are per cent of control
# [16] = Growth inhibition of human HCT116 cells at 10 uM after 48 hrs by sulforhodamine B assay; settings: HCT-116, 48 h, values are per cent of control
# HT-29 = assay: Growth inhibition of human HT-29 cells at 10 uM after 48 hrs by sulforhodamine B assay; settings: HT-29, 48 h, values are per cent of control
# KM12 = assay: Growth inhibition of human KM12 cells at 10 uM after 48 hrs by sulforhodamine B assay; settings: KM12, 48 h, values are per cent of control
# [17] = Growth inhibition of human SW620 cells at 10 uM after 48 hrs by sulforhodamine B assay; settings: SW-620, 48 h, values are per cent of control
# [18] = Growth inhibition of human SF268 cells at 10 uM after 48 hrs by sulforhodamine B assay; settings: SF-268, 48 h, values are per cent of control
# [19] = Growth inhibition of human SF295 cells at 10 uM after 48 hrs by sulforhodamine B assay; settings: SF-295, 48 h, values are per cent of control
# [20] = Growth inhibition of human SF539 cells at 10 uM after 48 hrs by sulforhodamine B assay; settings: SF-539, 48 h, values are per cent of control
# [21] = Growth inhibition of human SNB19 cells at 10 uM after 48 hrs by sulforhodamine B assay; settings: SNB-19, 48 h, values are per cent of control
smiles,measurement,setting,value
N#C/C(=C\c1cc2ccccc2s1)c1ccc2c(c1)OCO2,"growth, % of control at 10 µM",[1],0.5%
same,"growth, % of control at 10 µM",U-251,18.4%
same,"growth, % of control at 10 µM",[2],19.9%
same,"growth, % of control at 10 µM",M14,20.6%
same,"growth, % of control at 10 µM",MDA-MB-435,-37.2%
same,"growth, % of control at 10 µM",SK-MEL-2,29.2%
same,"growth, % of control at 10 µM",SK-MEL-28,60.6%
same,"growth, % of control at 10 µM",SK-MEL-5,16.6%
same,"growth, % of control at 10 µM",[3],60.2%
same,"growth, % of control at 10 µM",[4],50.4%
same,"growth, % of control at 10 µM",[5],14%
same,"growth, % of control at 10 µM",[6],-1.9%
same,"growth, % of control at 10 µM",[7],20.7%
same,"growth, % of control at 10 µM",786-0,44.7%
same,"growth, % of control at 10 µM",A498,-7.5%
same,"growth, % of control at 10 µM",ACHN,38.8%
same,"growth, % of control at 10 µM",[8],41.2%
same,"growth, % of control at 10 µM",[9],-2.6%
same,"growth, % of control at 10 µM",SN12C,25.3%
same,"growth, % of control at 10 µM",[10],42.7%
same,"growth, % of control at 10 µM",[11],34.9%
same,"growth, % of control at 10 µM",[12],5.1%
same,"growth, % of control at 10 µM",MDA-MB-231,24.3%
same,"growth, % of control at 10 µM",[13],56.4%
same,"growth, % of control at 10 µM",MDA-MB-468,14.1%
same,"growth, % of control at 10 µM",K562,18.8%
same,"growth, % of control at 10 µM",A549,17.2%
same,"growth, % of control at 10 µM",[14],58.5%
same,"growth, % of control at 10 µM",NCI-H226,28.7%
same,"growth, % of control at 10 µM",NCI-H322M,40.9%
same,"growth, % of control at 10 µM",NCI-H460,9.7%
same,"growth, % of control at 10 µM",[15],-33.9%
same,"growth, % of control at 10 µM",[16],11.6%
same,"growth, % of control at 10 µM",HT-29,5%
same,"growth, % of control at 10 µM",KM12,6%
same,"growth, % of control at 10 µM",[17],21%
same,"growth, % of control at 10 µM",[18],23.8%
same,"growth, % of control at 10 µM",[19],2.9%
same,"growth, % of control at 10 µM",[20],-10.1%
same,"growth, % of control at 10 µM",[21],46.4%
N#C/C(=C\c1cc(F)cc(F)c1)c1ccc2c(c1)OCO2,"growth, % of control at 10 µM",[1],112%
same,"growth, % of control at 10 µM",U-251,108%
same,"growth, % of control at 10 µM",[2],105%
same,"growth, % of control at 10 µM",M14,99%
same,"growth, % of control at 10 µM",MDA-MB-435,98.2%
same,"growth, % of control at 10 µM",SK-MEL-2,119%
same,"growth, % of control at 10 µM",SK-MEL-28,115%
same,"growth, % of control at 10 µM",SK-MEL-5,105%
same,"growth, % of control at 10 µM",[3],107%
same,"growth, % of control at 10 µM",[4],103%
same,"growth, % of control at 10 µM",[5],96.7%
same,"growth, % of control at 10 µM",[6],106%
same,"growth, % of control at 10 µM",[7],102%
same,"growth, % of control at 10 µM",786-0,94.6%
same,"growth, % of control at 10 µM",A498,111%
same,"growth, % of control at 10 µM",ACHN,109%
same,"growth, % of control at 10 µM",[8],94.2%
same,"growth, % of control at 10 µM",[9],98.5%
same,"growth, % of control at 10 µM",SN12C,106%
same,"growth, % of control at 10 µM",[10],119%
same,"growth, % of control at 10 µM",[11],104%
same,"growth, % of control at 10 µM",[12],109%
same,"growth, % of control at 10 µM",MDA-MB-231,102%
same,"growth, % of control at 10 µM",[13],94.5%
same,"growth, % of control at 10 µM",MDA-MB-468,102%
same,"growth, % of control at 10 µM",K562,106%
same,"growth, % of control at 10 µM",A549,100%
same,"growth, % of control at 10 µM",[14],91.9%
same,"growth, % of control at 10 µM",NCI-H226,102%
same,"growth, % of control at 10 µM",NCI-H322M,121%
same,"growth, % of control at 10 µM",NCI-H460,103%
same,"growth, % of control at 10 µM",[15],105%
same,"growth, % of control at 10 µM",[16],97.1%
same,"growth, % of control at 10 µM",HT-29,109%
same,"growth, % of control at 10 µM",KM12,97.6%
same,"growth, % of control at 10 µM",[17],105%
same,"growth, % of control at 10 µM",[18],101%
same,"growth, % of control at 10 µM",[19],98.5%
same,"growth, % of control at 10 µM",[20],97.8%
same,"growth, % of control at 10 µM",[21],110%
